Data from article PMC5321741, “Arylmethylamino steroids as antiparasitic agents” (Nature Communications, 2017).

Test system: P. berghei transmission from mice to Anopheles gambiae mosquitoes
Assay: in vivo transmission-blocking assay
Set-up: species or system Plasmodium berghei
Settings: 100 mg kg−1 i.p. daily, three doses; 4 days post passage
Experimental: We further tested the activity of compound 1o on parasite transmission from mice to Anopheles gambiae mosquitoes. For this, P. berghei-infected mice received a daily injection of compound 1o for 3 days starting 24 h post passage and were exposed to mosquito bites 24 h after each injection. Tween 80 (Tw80) and methylene blue (MB) served as negative and positive controls, respectively. As with MB, compound 1o limited parasite multiplication in mice, albeit to a lesser extent (Fig. 3a). […]
Figure 3 Effect of compound 1o on P. berghei multiplication in mice and on parasite transmission to mosquitoes. […] Parasitemia was monitored daily and the mean± s.d. of three independent experiments are plotted. […] (b) Prevalence (percentage of infected mosquitoes) and (c) infection intensity (mean number of parasites per infected midgut) were determined 7 days post infectious blood feeding. […] Significance for differences between treatments was calculated using generalized linear models with treatment, time, and repeats as variables, ***P value <0.001 (a–c). n, number of mosquitoes. […] Survival of treated gametocytes was calculated for each concentration relative to parasites exposed to vehicle. […]
Parasitaemia was determined daily via FACS analysis (FACSCalibur, BD Bioscience). […]

For `COc1ccc2c(c1)CCC1C2CC[C@@]2(C)C1CC[C@H]2NCc1cc2ccccc2cc1O` (stereo partly shown) [1o], the “parasite transmission to mosquitoes” value was “fully block parasite transmission to mosquitoes”.
